Data set [1] is described as follows: Confocal microscopy of solutes with low internal pH vesicles. The data set is classed as physicochemical. As to conditions: for localisation of solute encapsulated during preparation: confocal microscopy after 7 days of dialysis; for waiting time before the vesicles absorb the solute spontaneously: vesicles prepared without addition of solute. As to the method: Optionally, solute to be encapsulated can be added. If the vesicles were prepared without addition of solute in the preceding stages, they are then able to absorb certain compounds present in solution, for example Rhodamine B or Rhodamine 6G. It is sufficient to add the solute and wait about ten minutes before the vesicles absorb the solute spontaneously.
The presence of vesicles in the solution is checked by confocal microscopy after labelling with Oregon Green 488: take about 100 mg of solution, and add 20 μL of a saturated aqueous solution of Oregon Green 488, diluted 10-fold. Observation by confocal microscopy is carried out according to the usual techniques. An image of the vesicles is obtained, with the positive walls marked with the negative stain (FIG. 2). The vesicles are well separated.
The presence of vesicles in the solution and encapsulation of Rhodamine 6G is checked by confocal microscopy according to the usual techniques. […] The same observation can be carried out after labelling with Oregon Green 488: to 20 μL of solution, add 10 μL of a saturated aqueous solution of Oregon Green 488, diluted 10-fold.
After 7 days of dialysis, withdraw the solution from the cassette using a syringe and store it at room temperature.
After 20 minutes, zones with high concentration of Rhodamine 6G are observed by confocal microscopy (FIG. 14).

The nature of data set [2]: Permeability to anions and degree of encapsulation (dialysis, fluorescence at 522 nm). Conditions: of the initial Oregon Green. The data set is classed as physicochemical. As to the method:
Stir at 50° C. for 72 hours.
The solution is made up to 3 mL by adding a solution of CTACl at 1.5 mM in a borate buffer solution at pH=9. The fluorescence emission at 522 nm with excitation at 502 nm is measured with a Varian Cary Eclipse fluorescence spectrometer for all the solutions prepared from each of the samples taken. The concentration of Oregon Green in each sample is proportional to the fluorescence emission to within an arbitrary factor that is not important for the measurement.
(FIG. 11). […] The ratio of the fluorescence measured from the initial solution to the fluorescence extrapolated to t=0 makes it possible to measure the degree of encapsulation. 60% of the initial Oregon Green is therefore encapsulated.

Data set [3] can be described thus: Confocal microscopy of solutes with high internal pH vesicles. Conditions: Example 11 vesicles, waiting time of one minute. It counts as physicochemical. The procedure: The presence of vesicles in the solution is checked by confocal microscopy after adding Rhodamine 6G: take about 100 μL of solution, and add 10 μL of an aqueous solution of Rhodamine 6G at 10 μM. Observation by confocal microscopy is carried out according to the usual techniques.
The presence of vesicles in the solution is checked by confocal microscopy by adding Rhodamine 6G as described above.

Here are results for 3 compounds from patent US20110253633A1, “CATANIONIC VESICLES, PROCESS FOR PREPARING SAME AND APPLICATIONS THEREOF” (COMMISSARIAT A L'ENERGIE ATOMIQUE ET AUX ENERGIES ALT., priority 2008, published 2011).

Like-named read-outs stand apart in the source and are kept apart here.

Turning to `CC/N=c1\cc2oc3cc(NCC)c(C)cc3c(-c3ccccc3C(=O)OCC)c-2cc1C.Cl` [Rhodamine 6G, Chloride of Rhodamine 6G], the “spontaneous encapsulation of solute added after dialysis” value in data set [1] (Example 12 vesicles, after 20 minutes) is “accumulated preferentially”. In data set [1], the “localisation of solute encapsulated during preparation” value was “present inside the vesicles, and exclusively inside”; the “waiting time before the vesicles absorb the solute spontaneously” value is “about ten”. Besides, where the note is “initial concentration in the solution 1.5 mM”, the “concentration in the vesicles extrapolated to t=0” value was 500 µM. Besides, the “permeability of the vesicles to Rhodamine 6G” value (not told) is 8.1 10^−12 cm/s. The compound further had a degree of encapsulation (of the initial Rhodamine 6G) of 30%.
`O=C(O)c1ccccc1-c1c2cc(F)c(=O)cc-2oc2cc(O)c(F)cc12` [Oregon Green] gave a degree of encapsulation in data set [2] of 60%. In addition, the “penetration of stain added after dialysis” value in data set [1] (Example 2 vesicles, excess of negative stain) was “does not penetrate into the vesicles”. For the same compound, the “spontaneous encapsulation of solute added after dialysis” value in data set [3] is listed as “spontaneous encapsulation”.
Consider `CCN(CC)c1ccc2c(-c3ccccc3C(=O)O)c3ccc(=[N+](CC)CC)cc-3oc2c1.[Cl-]` [Rhodamine B, Chloride of Rhodamine B], for which, in data set [1], the “localisation of solute encapsulated during preparation” value was “exclusively encapsulated inside the vesicles, not outside” and the “waiting time before the vesicles absorb the solute spontaneously” value is given as “about ten”.
